Results published in patent publication US4512986A, “Progrestationally active steroids” (priority 1983, dated 1985).

Columns and labels:
[1] = biological target: T1, Cytosol Progesterone Receptor of the Estrogen-primed Immature Rabbit Uterus (Oryctolagus cuniculus, UniProt P06186); assay: Relative binding affinity for progesterone receptor (competition with 3H-progesterone); design: species or system rabbit (New Zealand White)
T1 construct: cytosol progesterone receptor of the estrogen-primed immature rabbit uterus; tissue Dutchland Laboratories, Inc., Denver, Pa (animals); host or cells: uterus cytosol of estradiol-treated immature female New Zealand White rabbits
T1 sequence (P06186 1-930): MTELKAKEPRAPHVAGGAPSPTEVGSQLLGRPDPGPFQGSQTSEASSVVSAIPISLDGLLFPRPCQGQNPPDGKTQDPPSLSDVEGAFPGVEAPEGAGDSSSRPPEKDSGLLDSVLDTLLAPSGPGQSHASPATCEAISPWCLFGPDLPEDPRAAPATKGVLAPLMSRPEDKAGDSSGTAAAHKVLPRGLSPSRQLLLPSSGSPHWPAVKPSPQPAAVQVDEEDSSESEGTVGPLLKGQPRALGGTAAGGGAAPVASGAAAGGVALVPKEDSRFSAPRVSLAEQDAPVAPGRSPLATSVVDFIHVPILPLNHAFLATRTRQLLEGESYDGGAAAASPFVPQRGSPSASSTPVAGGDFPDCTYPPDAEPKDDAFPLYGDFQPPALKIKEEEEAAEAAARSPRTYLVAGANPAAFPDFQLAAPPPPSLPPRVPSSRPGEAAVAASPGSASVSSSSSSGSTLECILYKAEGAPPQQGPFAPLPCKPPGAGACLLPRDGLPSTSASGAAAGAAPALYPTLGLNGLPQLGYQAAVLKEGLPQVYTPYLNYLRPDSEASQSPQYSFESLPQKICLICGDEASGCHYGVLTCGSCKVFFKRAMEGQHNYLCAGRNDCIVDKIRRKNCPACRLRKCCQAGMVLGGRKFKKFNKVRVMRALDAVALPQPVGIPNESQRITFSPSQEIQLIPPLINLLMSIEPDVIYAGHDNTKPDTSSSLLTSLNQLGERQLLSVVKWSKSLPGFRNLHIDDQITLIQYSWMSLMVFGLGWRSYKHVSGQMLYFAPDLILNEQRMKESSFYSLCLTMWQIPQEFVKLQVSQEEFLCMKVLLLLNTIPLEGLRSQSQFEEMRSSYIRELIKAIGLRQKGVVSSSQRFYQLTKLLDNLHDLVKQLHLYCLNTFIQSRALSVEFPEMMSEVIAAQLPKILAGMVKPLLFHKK
Method: RBA values recorded at 0° C. after short incubation times (e.g., 2 hr) mainly reflect differences in the association rate constants of the competing ligands, whereas those measured after long incubation times (e.g., 16 to 24 hr) and/or higher temperatures predominantly are influenced by differences in the dissociation rate constants of the competing ligands. RBA's determined after short incubation times primarily reflect the association of the competitor compared to the natural hormone. Conversely, RBA's measured after long incubation times reflect the dissociation rate of the competitor compared to the natural hormone.
The assay components are combined, allowed to equilibrate, and unbound radioactivity removed by charcoal adsorption.
Animal species. Immature female New Zealand White rabbits weighing 0.8 to 1.0 kg (Dutchland Laboratories, Inc., Denver, Pa).
Pretreatment. Subcutaneous treatment with 15 μg 17β-estradiol/0.6 ml sesame oil each morning (0830 to 0930 hr) for three days. Animals sacrificed 24 hr after final injection.
Tissue. Uterus; each uterus weighed about 1.0 g and two or three uteri were pooled for each assay.
Buffer. (A) 0.01M TES, pH 7.4, 1 mM EDTA, 0.012M thioglycerol and 30% glycerol for cytosol preparation and ^3 H-steroid, unlabeled hormone and compound solutions. (B) 0.01M TES, pH 7.4, 1 mM EDTA and 0.012M thioglycerol for charcoal solution.
Homogenization. Five or six 5-second bursts with 30 second cooling periods between bursts using Brinkman Polytron Pt. 10 at 3.5 rheostat setting.
Temperature. 0°-4° C. for all steps.
Centrifugation. 45,000 rpm for 1 hr, 50 Ti rotor, Beckman L8-80 ultracentrifuge.
Incubation. 16-18 hr at 4°-6° C.
Concentations. 1×10^-10 M to 1×10^-5 M (7 concentrations).
Method. Charcoal adsorption method used to remove unbound radioactivity. Five-tenths ml of dextran-coated charcoal (0.5% Norit A and 0.05% dextran T-70) added to all tubes except total radioactivity tubes (0.5 ml buffer [B] added), tubes vortexed 3-5 sec, allowed to sit for 10 minutes and centrifuged 10 minutes at 2000 rpm in Beckman TJ-6 centrifuge at 0°-4° C.
Data Interpretation. […] The relative binding affinity (RBA) of each compound was calculated by using the following equation. [formula] where

[2] = system: uterine endometrium of estrone-primed immature rabbits; assay: Clauberg assay (progestational activity, McPhail); assay type: in vivo, rabbit (New Zealand White); settings: for McPhail Index (0-4) (X ± S.D.): 0 none, 4 maximal
[3] = Assay 2, 16-18 hour incubation, progesterone = 100, 5α-dihydro-17α-ethynyl: lot 1
[4] = Assay 3, 16-18 hour incubation, progesterone = 100, 5α-dihydro-17α-ethynyl: lot 1
[5] = Assay 4, 16-18 hour incubation, progesterone = 100
[6] = Assay 5, 16-18 hour incubation, progesterone = 100

Question: With `C#C[C@]1(C(C)=O)CC[C@H]2[C@@H]3CC[C@H]4CC(=O)CC[C@]4(C)[C@H]3CC[C@@]21C` [5α-Dihydro-17α-ethynylprogesterone, 17α-Ethynyl-5α-pregnane-3,20-dione] as the molecule, how does the “RBA, mean of assays (X±S.D.)” value ([1]; 16 to 18 hour incubation at 0° C., spurious value 11 excluded) read?
Answer: 154±23

Question: And the RBA ([1]; Assay 1, 16-18 hour incubation, progesterone = 100, 5α-dihydro-17α-ethynyl: lot 1)?
Answer: 11%

Question: And the RBA [1, 3]?
Answer: 186%

Question: What about the RBA [1, 4] of the same molecule?
Answer: 144%

Question: What about the RBA ([1]; Assay 3, lot 2, 16-18 hour incubation, progesterone = 100) of the same molecule?
Answer: 133%

Question: What about the RBA ([1]; two-hour incubation at 0° C.) of the same molecule?
Answer: 211

Question: What about the “Uterine Weight (X ± S.D.)” value ([2]; oral, 100 μg/rabbit daily) of the same molecule?
Answer: 1.00 g

Question: What about the “McPhail Index (0-4) (X ± S.D.)” value ([2]; oral, 100 μg/rabbit daily) of the same molecule?
Answer: 0

Question: And the “Uterine Weight (X ± S.D.)” value ([2]; oral, 200 μg/rabbit daily)?
Answer: 1.30 ± 0.22 g

Question: What about the “McPhail Index (0-4) (X ± S.D.)” value ([2]; oral, 200 μg/rabbit daily) of the same molecule?
Answer: 0.04 ± 0.06

Question: What about the “Uterine Weight (X ± S.D.)” value ([2]; oral, 400 μg/rabbit daily) of the same molecule?
Answer: 1.10 ± 0.08 g

Question: And the “McPhail Index (0-4) (X ± S.D.)” value ([2]; oral, 400 μg/rabbit daily)?
Answer: 0.04 ± 0.06

Question: What about the “progestational response, in words” value ([2]; sc 5, 10, 20, 100, 200, 400 and oral 100, 200, 400 μg/rabbit/day) of the same molecule?
Answer: inactive at all doses examined

Question: And the “Uterine Weight (X ± S.D.)” value ([2]; sc, 5 μg/rabbit daily)?
Answer: 0.90 ± 0.29 g

Question: And the “McPhail Index (0-4) (X ± S.D.)” value ([2]; sc, 5 μg/rabbit daily)?
Answer: 0.08 ± 0.12

Question: And the “Uterine Weight (X ± S.D.)” value ([2]; sc, 10 μg/rabbit daily)?
Answer: 1.33 ± 0.09 g

Question: What about the “McPhail Index (0-4) (X ± S.D.)” value ([2]; sc, 10 μg/rabbit daily) of the same molecule?
Answer: 0.29 ± 0.24

Question: What about the “Uterine Weight (X ± S.D.)” value ([2]; sc, 20 μg/rabbit daily) of the same molecule?
Answer: 1.03 ± 0.17 g

Question: What about the “McPhail Index (0-4) (X ± S.D.)” value ([2]; sc, 20 μg/rabbit daily) of the same molecule?
Answer: 0.04 ± 0.06

Question: And the “Uterine Weight (X ± S.D.)” value ([2]; sc, 100 μg/rabbit daily)?
Answer: 1.18 ± 0.25 g

Question: What about the “McPhail Index (0-4) (X ± S.D.)” value ([2]; sc, 100 μg/rabbit daily) of the same molecule?
Answer: 0.13 ± 0.13

Question: And the “Uterine Weight (X ± S.D.)” value ([2]; sc, 200 μg/rabbit daily)?
Answer: 1.15 ± 0.07 g

Question: And the “McPhail Index (0-4) (X ± S.D.)” value ([2]; sc, 200 μg/rabbit daily)?
Answer: 0.58 ± 0.16

Question: And the “Uterine Weight (X ± S.D.)” value ([2]; sc, 400 μg/rabbit daily)?
Answer: 1.24 ± 0.09 g

Question: What about the “McPhail Index (0-4) (X ± S.D.)” value ([2]; sc, 400 μg/rabbit daily) of the same molecule?
Answer: 0.33 ± 0.06

Question: With `C=C[C@]1(C(C)=O)CC[C@H]2[C@@H]3CC[C@H]4CC(=O)CC[C@]4(C)[C@H]3CC[C@@]21C` [5α-Dihydro-17α-vinylprogesterone] as the molecule, how does the RBA [1, 3] read?
Answer: 47%

Question: What about the RBA [1, 4] of the same molecule?
Answer: 51%

Question: How did the RBA [1, 5] turn out when `C#C[C@@]1(C(C)=O)CC[C@H]2[C@@H]3C[C@H](C)C4=CC(=O)CC[C@]4(C)[C@H]3CC[C@@]21C` [6α-Methyl-17α-acetylpregn-4-ene-20-yn-3-one] was run?
Answer: 5%

Question: What about the RBA [1, 6] of the same molecule?
Answer: 6%

Question: What does the source list for `C#C[C@]1(C(C)=O)CC[C@H]2[C@@H]3C[C@H](C)C4=CC(=O)CC[C@]4(C)[C@H]3CC[C@@]21C` [6α-Methyl-17α-ethynylprogesterone, 17α-Ethynyl-6α-methylprogesterone]?
Answer: RBA [1, 5]: 63%; RBA [1, 6]: 67%; RBA ([1]; Assay 6, 16-18 hour incubation, progesterone = 100): 91%; potency relative to 6α-methyl-17-acetoxyprogesterone (Provera), in words ([2]; both given orally): at least as twice as potent; progestational potency relative to subcutaneous progesterone, in words ([2]; compound given orally, progesterone sc): four times more potent than progesterone administered subcutaneously; Uterine Weight (X ± S.D.) ([2]; oral, 10 μg/rabbit daily): 1.28 ± 0.37 g; McPhail Index (0-4) (X ± S.D.) ([2]; oral, 10 μg/rabbit daily): 0.67 ± 0.42; Uterine Weight (X ± S.D.) ([2]; oral, 25 μg/rabbit daily): 2.43 ± 0.41 g; McPhail Index (0-4) (X ± S.D.) ([2]; oral, 25 μg/rabbit daily): 2.67 ± 1.00; Uterine Weight (X ± S.D.) ([2]; oral, 50 μg/rabbit daily): 3.21 ± 0.79 g; McPhail Index (0-4) (X ± S.D.) ([2]; oral, 50 μg/rabbit daily): 3.92 ± 0.12; Uterine Weight (X ± S.D.) ([2]; oral, 100 μg/rabbit daily): 3.28 ± 0.35 g; McPhail Index (0-4) (X ± S.D.) ([2]; oral, 100 μg/rabbit daily): 4.00 ± 0.00; Uterine Weight (X ± S.D.) ([2]; sc, 2.5 μg/rabbit daily): 1.31 ± 0.20 g; McPhail Index (0-4) (X ± S.D.) ([2]; sc, 2.5 μg/rabbit daily): 0.21 ± 0.06; Uterine Weight (X ± S.D.) ([2]; sc, 5 μg/rabbit daily): 1.84 ± 0.48 g; McPhail Index (0-4) (X ± S.D.) ([2]; sc, 5 μg/rabbit daily): 1.29 ± 1.40; Uterine Weight (X ± S.D.) ([2]; sc, 10 μg/rabbit daily): 3.68 ± 0.31 g; McPhail Index (0-4) (X ± S.D.) ([2]; sc, 10 μg/rabbit daily): 3.92 ± 0.12; Uterine Weight (X ± S.D.) ([2]; sc, 20 μg/rabbit daily): 3.69 ± 0.62 g; McPhail Index (0-4) (X ± S.D.) ([2]; sc, 20 μg/rabbit daily): 4.00 ± 0.00
